Reference: patent US20160220710A1, “COMPOSITIONS AND METHODS FOR DELIVERING PHARMACEUTICAL AGENTS” (THE REGENTS OF THE UNIVERSITY OF MICHIGAN, priority 2015, published 2016)
Like-named read-outs stand apart in the source and are kept apart here.

What was measured:
[1] = tested on: caspase 1, IL-1β, TNFα, IL-1RA; assay: Inflammasome proteins and cytokines in organs of CFZ-treated mice; type: in vivo
Experimental: Clofazimine (CFZ, Sigma-Aldrich, C8895) was prepared in sesame oil (Shirakiku, Japan, or Roland, China) and Powdered Lab Diet 5001 (PMI International, Inc., St. […] Baik et al., 2011, supra). Control mice were fed with the same diet without CFZ. The animal protocol was approved by the University of Michigan's Animal Care and Use Committee in accordance with the National Institutes of Health guidelines (UCUCA #PRO0005111). Mouse Bronchoalveolar Lavage (BAL) Harvest and Isolation of Alveolar Macrophages, Immunohistochemistry and Imaging, SDS-PAGE and Western Blot, Cytokine Measurements

[2] = mice; cited from earlier work
RAW 264.7 cells = assay: MitoTracker Red live cell staining (mitochondrial membrane potential); type: cell-based, murine; details: 10 μM
Experimental: Cells were cultured with CFZ or CLDI media for 24 h in chamber slides (Lab Tek) and stained with 150 nM of MitoTracker Red CMXRos (MTR, Life Technologies) in fresh media for 45 min, and then NucBlue Live Cell Stain (Life Technologies) was applied for 10 min for nuclear staining. After incubation, extracellular MTR and NucBlue were washed twice with DPBS and the cells were visualized on a Nikon Eclipse Ti fluorescence microscope (Japan) using Texas Red (Mitotracker) and DAPI (NucBlue) filters. Real-time live cell images were captured every 10 sec for 30 min with the same microscope and video was created using the Nikon Elements software. For confocal imaging of intracellular CLDIs, FM 1-43 (Life Technologies) was used at 3.5 μM (15 min at 37° C.) for membrane staining followed by NucBlue (10 min). After washing with DPBS, cells were visualized using laser-scanning confocal microscopy (Olympus Fluoview 500) fitted with argon (FITC) and HeNe Red lasers (Cy5). Images were taken along the z-axis with a 60× objective at 0.25 μm intervals and the composite Z-stack images were created using the Nikon Elements software.

alveolar macrophages = tested on: alveolar macrophages; set-up: species or system mice; details: mouse, in vivo, 6 weeks
Experimental: Clofazimine (CFZ, Sigma-Aldrich, C8895) was prepared in sesame oil (Shirakiku, Japan, or Roland, China) and Powdered Lab Diet 5001 (PMI International, Inc., St. Louis, Mo.) and orally administrated to Wild-type (WT) C57BL/6 mice or IL-1RA^−/− (4-5 week old, Jackson Laboratory, Bar Harbor, Me.) for up to 8 weeks ad libitum as previously described (Baik et al., 2013, supra; Baik et al., 2011, supra). Control mice were fed with the same diet without CFZ. The animal protocol was approved by the University of Michigan's Animal Care and Use Committee in accordance with the National Institutes of Health guidelines (UCUCA #PRO0005111).
PBS/LPS-instilled CFZ- or control mice were euthanized by exsanguination while deeply anesthetized with an intraperitoneal injection of ketamine/xylazine. The trachea was surgically exposed and cannulated with an 18 G needle and the lungs were lavaged by instilling 1 ml DPBS (Life Technologies) containing 0.5 mM EDTA (Sigma). The retrieved BAL was then centrifuged (10 min at 400×g, 4° C.), and the supernatant was frozen (−80° C.), while the cell pellets were resuspended in 1 ml RPMI 1640 media (Life Technologies). To count total cells, the cells were stained with Trypan blue and counted using a hemocytometer. […]

[3] = Baseline vital signs of 8 wk CFZ-treated mice; type: in vivo
Experimental: Clofazimine (CFZ, Sigma-Aldrich, C8895) was prepared in sesame oil (Shirakiku, Japan, or Roland, China) and Powdered Lab Diet 5001 (PMI International, Inc., St. […] Baik et al., 2011, supra). Control mice were fed with the same diet without CFZ. The animal protocol was approved by the University of Michigan's Animal Care and Use Committee in accordance with the National Institutes of Health guidelines (UCUCA #PRO0005111). The general health status of each PBS/LPS-instilled mice was monitored by measuring body weight and rectal temperature (Microprobe Thermometer, Physitemp Instruments, Clifton, N.J.), and cardiopulmonary function (arterial oxygen saturation, respiratory rate, heart rate and pulse distention) was monitored using MouseOx with a collar clip sensor ([…] Sciences Corp, Oakmont, Pa.) as previously described (Lax S et al., (2014) BMJ open […], et al. (2014) PLoS One 9(6):e98336). In brief, one day before IT instillations (D-1) the hair around the neck of each mouse was removed using Nair (Church & Dwight, Princeton, N.J.) to enable data acquisition using the collar clip sensor. The next day (D 0), immediately prior to the first LPS/PBS dose, and every 24 h afterwards until day 6 (D 6), the body weight, temperature and MouseOx readings were recorded. MouseOx data was acquired by very brief anesthesia of the mouse using 5% isoflurane to facilitate the placement of the collar clip sensor. The mouse was then placed in an enclosed chamber with ambient light and allowed to acclimatize for 5 min at which point the animals had recovered normal activities and physiological readings.

[4] = 2 weeks of oral drug administration

## CC(C)/N=c1\cc2n(-c3ccc(Cl)cc3)c3ccccc3nc-2cc1Nc1ccc(Cl)cc1 [CFZ, 3-(p-chloroanilino)-10-(p-chlorophenyl)-2, 10-dihydro-2-isopropyliminophenazine]
[1]; 2 and 8 weeks, except liver at 2 weeks
  TNFα expression in organs: unchanged by CFZ at both 2 and 8 weeks
[1]; 2 weeks of CFZ
  cleavage of hepatic caspase 1 and IL-1β: only moderate cleavage of hepatic caspase 1 and IL-1β
[1]; [4]
  IL-1RA in the liver: did not cause significant IL-1RA change in the liver
  spleen and lung IL-1RA levels: slightly increased
[1]; 8 weeks
  IL-1RA levels in the kidney: unchanged
[1]; 8 weeks of CFZ
  hepatic caspase 1 cleavage and IL-1β maturation: significantly reduced
[1]; 8 weeks of oral administration
  IL-1RA expression in liver, spleen and lung: major upregulation of IL-1RA expression
[1]; mouse, in vivo
  IL-1β levels in the spleen, lung and kidney: did not change
[2]
  pharmacokinetic half-life t1/2: ~170 h
RAW 264.7 cells
  mitochondrial membrane potential (Mitotracker Red staining): diffuse cytoplasmic MTR staining, indicative of mitochondrial membrane depolarization
  nuclear MTR signal vs untreated cells: 4 fold
Alveolar macrophages; C57BL/6 (wild-type)
  CLDI+ alveolar macrophages: 65%
Alveolar macrophages; IL-1RA−/−
  CLDI+ alveolar macrophages: 60%
[3]
  arterial oxygen saturation, higher than control diet-treated: 1.5%
  behavioral signs of sickness: did not display any behavioral signs of sickness
  body temperature: unaffected
  breathing rate, lower than control diet-treated: 10.7%
  heart rate, lower than control diet-treated: 9.3%
  pulse distention, lower than control diet-treated: 16.9%
  weight, less than control diet-treated: 6.7%
[3]; n = 16
  Arterial O2 Saturation (% ± S.D.): 99.01 ± 0.24%
  Body Temperature (° C. ± S.D): 35.52 ± 0.76 °C
  Breathing rate (brpm ± S.D.): 154.29 ± 19.43 brpm
  Heart rate (bpm ± S.D.): 573.94 ± 85.28 bpm
  Pulse distention (μm ± S.D): 425.57 ± 52.32 μm
  Weight (g ± S.D): 24.39 ± 1.92 g
